Reference: publication PMC11270730, “Isolation and In Vitro Biological Evaluation of Triterpenes from Salacia grandifolia Leaves” (ACS Omega, 2024)

Assays:
[1] = system: MHV-3; test: Antiviral MTT assay against MHV-3 in L929 cells (EC50); type: cell-based, mouse hepatitis virus 3 (murine coronavirus); conditions: for EC50: Murine coronavirus, MHV-3 in L929 cells, MOI 0.1, MTT, NA: not active
Method: (§1) The antiviral activity of isolated compounds and extracts was evaluated against the murine coronavirus MHV-3. Initially, the viability of L929 (mouse adipose fibroblasts; ATCC CCL-1) cells was assessed using the MTT (3-(4,5-dimethylthiazol-2-yl)-2,5-diphenyltetrazolium bromide (Thermo Fisher Scientific, USA) assay.[11] Cells were cultured at 37 °C and 5% CO2 in Dulbecco’s modified Eagle medium (DMEM; Cultilab, Brazil) supplemented with 5% fetal bovine serum (FBS; Cultilab, Brazil), 100 IU/mL of penicillin (Cellofarm, Brazil), 100 μg/mL of streptomycin (Merck, Germany) and 0.25 μg/mL of amphotericin B (Cultilab, Brazil). Cells were seeded in 96-well microplates (4 × 10^4 cells per well) and added 200 μL of DMEM with 1% de FBS containing the diluted compounds and extracts to be tested (100 to 1.56 μM or 200 to 3.125 μg/mL). Serial dilutions of DMSO were used as a vehicle control. Additionally, a 10% v/v inhibition control of DMSO was used. After 72 h of incubation under the same conditions, media was removed and 100 μL of MTT diluted in DMEM (0.5 mg/mL) were added to each well and incubated for 3 h. Last, media was removed, and 100 μL of DMSO were added to each well to solubilize the formazan crystals. The absorbance was read at 570 nm using a spectrophotometer (Versamax, Molecular Devices, EUA). The percentages of cell viability inhibition were calculated as the ratio between the absorbance of cells treated with the compounds relative to the vehicle control. Linear regression was used to calculate CC50 values, considering only those data for which r^2 > 0.9. The 50% cytotoxic concentration (CC50) is defined as the highest concentration of a specific compound that reduces cell viability by 50%. All conditions were tested in two independent assays in triplicate.
Here, the same conditions as that used for CC50 were used, with the only difference being the concentrations of the samples (up to 8-fold dilution from the CC50 values for the compounds) diluted in 100 μL and added to 100 μL of viral suspension at a multiplicity of infection (MOI) of 0.1, that is, one viral particle per 10 cells in culture. Ribavirin was used as the positive control. The EC50 value was calculated as the percentage ratio between the absorbance of infected cells treated with the compounds and cells treated only with the vehicle. Last, the selectivity index (SI) was calculated using the ratio between CC50 and EC50. All conditions were tested in two independent assays in triplicate.

[2] = L929 cell viability, MTT assay (CC50); conditions: mouse
Method: as §1

[3] = system: THP-1 cells; test: Cytotoxic MTT assay, THP-1; type: cell-based; conditions: Homo sapiens; THP-1, MTT, 48 h, mean ± SD of two independent experiments
Method: (§2) The cytotoxicity of compounds was evaluated against the K-562 (chronic myeloid leukemia, ATCC CCL-243) and THP-1 (acute monocytic leukemia, ATCC TIB-202) cell lines. […] For the cytotoxicity assessment, cells were planted in 96-well microplates (1 × 10^4 cells per well) containing RPMI 1640 medium (Roswell Park Memorial Institute, Cultilab, Campinas, SP, Brazil) supplemented with 10% FBS (Cultilab, Campinas, SP, Brazil), 100 U/mL penicillin, 100 μg/mL streptomycin, and 10 mM HEPES, pH 7.4. The cells were incubated in a humidified incubator at 37 °C with 5% CO2 until the assay was performed. […] After 48 h of incubation, 100 μL of MTT salt at a concentration of 0.5 mg/mL was added to each well. The plate was then incubated for 3 h. After the incubation period, the supernatant was removed, and 50 μL of DMSO was added to each well to solubilize the formazan crystals. The absorbance per well was measured at a wavelength of 550 nm using a microplate reader (Versamax, Molecular Devices, USA). The minimum concentration that inhibited 50% of cell viability (IC50) in the presence of the tested compounds was determined by comparing it with cells cultured without the compounds (considered 100% viable).

[4] = system: K-562 cells; test: Cytotoxic MTT assay, K-562; type: cell-based; conditions: Homo sapiens, K562; K-562, MTT, 48 h, mean ± SD of two independent experiments
Method: as §2

Row | SMILES | EC50 [1] [µM] | CC50 at 72 h [2] [µM] | IC50 [3] [µM] | IC50 [4] [µM] | antiviral activity ([1]; MHV-3, up to 100 μM) | increase in activity compared to triterpene 1 ([1]; MHV-3 antiviral activity, 6 versus 1) [times]
1 | CC1C(=O)CCC2C1(C)CCC1C2(C)CCC2(C)C3CC(C)(C)CCC3(CO)CC(=O)C12C (centres unmarked) [Compound 1, 28-hydroxyfriedelane-3,15-dione] | 69 ± 6 | > 100 | 539 ± 43 | 259 ± 33 | – | –
2 | C[C@H]1C(=O)CC[C@@H]2[C@]1(C)CC[C@H]1[C@@]2(C)CC[C@@]2(C)[C@@H]3CC(C)(C)CC[C@]3(C)CC[C@]12C [Compound 2, friedelan-3-one] | – | > 100 | – | – | – | –
3 | C[C@H]1[C@@H](O)CC[C@@H]2[C@]1(C)CC[C@H]1[C@@]2(C)CC[C@@]2(C)[C@@H]3CC(C)(C)CC[C@]3(C)CC[C@]12C [Compound 3, friedelan-3β-ol] | – | > 100 | – | – | – | –
4 | C[C@H]1C(=O)CC[C@@H]2[C@]1(C)CC[C@H]1[C@@]2(C)CC[C@@]2(C)[C@@H]3CC(C)(C)CC[C@]3(C)CC(=O)[C@]12C [Compound 4, friedelane-3,15-dione] | – | > 100 | 350 ± 43 | 593 ± 44 | no antiviral activity | –
5 | C[C@H]1C(=O)CC[C@@H]2[C@]1(C)CC[C@H]1[C@@]2(C)CC[C@@]2(C)[C@@H]3CC(C)(C)CC[C@]3(C)C[C@H](O)[C@]12C [Compound 5, 15α-hydroxyfriedelan-3-one] | – | > 100 | – | – | – | –
6 | C[C@H]1C(=O)CC[C@@H]2[C@]1(C)CC[C@H]1[C@@]2(C)CC[C@@]2(C)[C@@H]3CC(C)(C)CC[C@]3(CO)CC[C@]12C [Compound 6, 28-hydroxyfriedelan-3-one] | 2.9 ± 0.3 | > 100 | 623 ± 12 | 318 ± 41 | – | 23
7 | C[C@H]1C(=O)CC[C@@H]2[C@]1(C)CC[C@H]1[C@@]2(C)CC[C@@]2(C)[C@@H]3C[C@@](C)(CO)CC[C@]3(C)CC[C@]12C [Compound 7, 30-hydroxyfriedelan-3-one] | – | > 100 | 385 ± 21 | 361 ± 52 | – | –
8 | C[C@H]1C(=O)CC[C@@H]2[C@]1(C)CC[C@H]1[C@@]2(C)CC[C@@]2(C)[C@@H]3C[C@](C)(CO)CC[C@]3(C)CC[C@]12C [Compound 8, 29-hydroxyfriedelan-3-one] | – | > 100 | – | – | – | –
9 | Nc1ccn([C@@H]2O[C@H](CO)[C@@H](O)[C@@H]2O)c(=O)n1 [cytarabine, reference compound] | – | – | 41 ± 8 | – | – | –
10 | NC(=O)c1ncn([C@@H]2O[C@H](CO)[C@@H](O)[C@H]2O)n1 [ribavirin, reference compound] | < 10 | > 100 | – | – | – | –
